Results from article PMC7038631 (Alzheimer's & dementia : the journal of the Alzheimer's …, 2019).
“Also recorded” adds a separate entry of the source.

Key:
[1] = tested on: WT 2N4R tau monomer; assay: Single-molecule FRET; format: biochemical; settings: 5 μM, vs buffer or DMSO
[2] = FRET control cells expressing free fluorophores; format: cell-based, human
[3] = biological target: purified recombinant full-length 2N4R wild-type (WT) tau (Homo sapiens, UniProt P10636); assay: Surface plasmon resonance binding to immobilized WT tau; settings: read-out: Kd, binding to purified WT tau protein (SPR); steady-state, 25 °C, 1 nM to 5 μM
Sequence of purified recombinant full-length 2N4R wild-type (WT) tau (P10636 1-441 isoform P10636-8): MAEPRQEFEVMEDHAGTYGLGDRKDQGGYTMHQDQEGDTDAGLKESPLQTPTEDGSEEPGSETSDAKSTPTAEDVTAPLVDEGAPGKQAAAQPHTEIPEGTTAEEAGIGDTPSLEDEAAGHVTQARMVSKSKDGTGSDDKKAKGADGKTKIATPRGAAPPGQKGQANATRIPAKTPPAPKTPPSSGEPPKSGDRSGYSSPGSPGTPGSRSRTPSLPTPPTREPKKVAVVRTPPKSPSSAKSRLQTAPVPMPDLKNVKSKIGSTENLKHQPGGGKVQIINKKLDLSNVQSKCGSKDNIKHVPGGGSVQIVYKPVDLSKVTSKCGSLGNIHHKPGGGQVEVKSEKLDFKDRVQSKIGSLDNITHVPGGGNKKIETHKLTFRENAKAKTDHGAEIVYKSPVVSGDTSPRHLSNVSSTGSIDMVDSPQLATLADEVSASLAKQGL

[4] = biological target: purified WT tau proteins (Homo sapiens, UniProt P10636); assay: Heparin induced thioflavin-T; format: biochemical
Sequence of purified WT tau proteins (P10636 1-441 isoform P10636-8): as above

[5] = tested on: untransfected SH-SY5Y cells; settings: MK-886 0.5, 1 or 2 μM
[6] = biological target: tau preformed fibrils (PFF) (Homo sapiens, UniProt P10636); assay: ThT signal of tau preformed fibrils; format: biochemical; settings: DTT 5 mM
Sequence of tau preformed fibrils (PFF) (P10636 1-441 isoform P10636-8): as above

CC(C)c1ccc2c(c1)c(SC(C)(C)C)c(CC(C)(C)C(=O)O)n2Cc1ccc(Cl)cc1 [MK-886]
smFRET change, N-terminal domain labeled tau construct [1]: minor decrease in FRET
smFRET change, PRR/MTBR labeled tau construct [1]: substantial increase in FRET
Action on cytosolic fluorophores (control FRET) [2]: not acting on the cytosolic fluorophores
Kd [3]: 178 nM
Direct effect on ThT fluorescence [4]: did not have a direct effect
Effect on lag phase of tau β-sheet fibril formation (ThT) ([4]; heparin 0.4 mg/ml, MK-886 0.5 and 5 μM): reduces the lag phase; also recorded: shortens the lag phase
Nucleation of tau fibril formation without heparin (ThT) ([4]; no heparin): unable to nucleate tau fibrillization; also recorded: did not act to nucleate
Rescue of cell cytotoxicity induced by UC-112 ([5]; UC-112 1 μM): did not rescue
Rescue of cell cytotoxicity induced by YM-155 ([5]; YM-155 1 μM): did not rescue
Effect on ThT signal from tau PFF [6]: did not reduce

O=c1c(O)c(-c2ccc(O)c(O)c2)oc2c(O)c(O)cc(O)c12 [gossypetin]
Effect on ThT signal from tau PFF [6]: significant decrease
